Molecular target: T1, fibrinogen receptor, glycoprotein IIb/IIIa (Homo sapiens, UniProt P05106+P08514)
T1 construct: obtained from Triton X-100 extracts of human blood platelets; from tissue; host or cells: human blood platelets (Triton X-100 extract)
Assay: Inhibition of fibrinogen binding to immobilised fibrinogen receptor glycoprotein IIb/IIIa (ELISA)
Details: glycoprotein IIb/IIIa from human blood platelets, bound to microtiter plates, read-out: IC50 (concentration required to inhibit the binding of fibrinogen to the immobilised receptor by 50%)
Description: The inhibition of fibrinogen […] on the fibrinogen receptor, glycoprotein IIb/IIIa, can be detected as follows:
Glycoprotein IIb/IIIa is obtained from Triton X-100 extracts of human blood platelets and purified by lectin affinity chromatography (Analytical Biochemistry 151, 1985, 169-177) and chromatography on an Arg-Gly-Asp-Ser affinity column (Science 231, 1986, 1559-62). The receptor protein thus obtained is bound to microtiter plates. The specific binding of fibrinogen to the immobilized receptor is determined with the aid of an ELISA system ("enzyme-linked immunosorbent assay"). The IC50 values below correspond to the concentration of the test substance which is required in order to inhibit the binding of fibrinogen to the immobilised receptor by 50%: […]

T1 sequence (P08514 32-887 limits assumed): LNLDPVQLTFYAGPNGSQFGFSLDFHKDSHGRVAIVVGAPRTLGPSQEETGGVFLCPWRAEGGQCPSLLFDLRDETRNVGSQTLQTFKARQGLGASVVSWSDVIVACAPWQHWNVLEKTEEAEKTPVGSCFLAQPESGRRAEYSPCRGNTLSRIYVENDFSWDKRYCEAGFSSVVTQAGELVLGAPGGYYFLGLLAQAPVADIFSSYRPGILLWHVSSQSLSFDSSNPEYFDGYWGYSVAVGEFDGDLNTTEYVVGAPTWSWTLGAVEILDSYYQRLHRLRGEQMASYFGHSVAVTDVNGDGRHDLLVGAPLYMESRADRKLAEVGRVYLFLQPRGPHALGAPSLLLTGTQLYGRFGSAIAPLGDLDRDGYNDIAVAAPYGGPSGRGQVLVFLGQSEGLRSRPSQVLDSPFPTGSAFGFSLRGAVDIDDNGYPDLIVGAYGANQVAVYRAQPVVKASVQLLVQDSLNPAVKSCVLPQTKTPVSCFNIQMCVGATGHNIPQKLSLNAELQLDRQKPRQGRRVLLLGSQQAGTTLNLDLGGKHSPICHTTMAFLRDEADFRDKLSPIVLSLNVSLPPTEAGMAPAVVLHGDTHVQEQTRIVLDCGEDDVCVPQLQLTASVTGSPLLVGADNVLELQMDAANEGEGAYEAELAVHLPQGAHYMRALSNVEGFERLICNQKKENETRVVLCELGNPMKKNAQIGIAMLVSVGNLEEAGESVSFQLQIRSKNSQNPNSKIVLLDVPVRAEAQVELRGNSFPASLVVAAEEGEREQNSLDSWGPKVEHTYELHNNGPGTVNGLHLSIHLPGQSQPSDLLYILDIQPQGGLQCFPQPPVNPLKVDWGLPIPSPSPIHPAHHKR
T1 sequence (P08514 891-1039 partner limits assumed): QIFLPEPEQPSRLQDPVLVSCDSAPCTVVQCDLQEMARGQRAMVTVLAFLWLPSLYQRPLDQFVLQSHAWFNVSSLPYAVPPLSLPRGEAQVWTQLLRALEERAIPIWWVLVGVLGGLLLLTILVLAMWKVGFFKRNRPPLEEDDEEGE
T1 sequence (P05106 27-788): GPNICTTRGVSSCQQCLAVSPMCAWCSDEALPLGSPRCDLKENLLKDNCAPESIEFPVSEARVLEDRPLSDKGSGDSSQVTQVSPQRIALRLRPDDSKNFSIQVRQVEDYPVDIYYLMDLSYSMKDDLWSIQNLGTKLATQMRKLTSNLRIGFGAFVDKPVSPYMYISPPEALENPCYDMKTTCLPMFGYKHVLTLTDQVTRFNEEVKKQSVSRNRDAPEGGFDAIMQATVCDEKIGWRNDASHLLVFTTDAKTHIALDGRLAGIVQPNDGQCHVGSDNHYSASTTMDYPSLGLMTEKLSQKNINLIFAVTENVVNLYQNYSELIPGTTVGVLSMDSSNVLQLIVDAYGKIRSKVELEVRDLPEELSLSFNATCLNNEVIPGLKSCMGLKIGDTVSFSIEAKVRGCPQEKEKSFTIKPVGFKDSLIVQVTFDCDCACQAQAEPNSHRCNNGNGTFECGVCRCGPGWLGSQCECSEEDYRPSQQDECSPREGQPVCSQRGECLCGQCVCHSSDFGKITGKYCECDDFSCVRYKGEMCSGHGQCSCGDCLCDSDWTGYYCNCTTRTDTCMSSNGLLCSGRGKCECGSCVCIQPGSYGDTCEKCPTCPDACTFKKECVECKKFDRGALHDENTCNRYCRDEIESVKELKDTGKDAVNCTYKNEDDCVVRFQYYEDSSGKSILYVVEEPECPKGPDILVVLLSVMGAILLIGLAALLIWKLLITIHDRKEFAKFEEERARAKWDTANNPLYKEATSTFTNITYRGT

Compound	IC50
N=C(N)c1ccc(C(=O)N2CCCC(C(=O)NCCC(=O)O)C2)cc1 (racemic) [Example 7, rac-N-[[1-(p-amidinobenzoyl)-3-piperi-dinyl]carbonyl]-β-alanine]	27 nM
N=C(N)c1ccc(C(=O)NC(CC(=O)NCCC(=O)O)c2ccccc2)cc1 (racemic) [Example 10, N-[(DL)-N-(p-amidinobenzoyl)-3-phenyl-β-alanyl]-β-alanine]	22 nM
N=C(N)c1ccc(C(=O)NCCC(=O)N[C@@H](CC(=O)O)C(=O)N[C@@H](Cc2ccccc2)C(=O)O)cc1 [Example 1, N-[N-[N-(p-amidinobenzoyl)-β-alanyl]-L-α-aspartyl]-3-phenyl-L-alanine]	0.3 nM
N=C(N)N1CCC(C(=O)NCCC(=O)N[C@@H](CC(=O)O)C(=O)N[C@@H](Cc2ccccc2)C(=O)O)CC1 [Example 2, N-[N-[N-(1-amidino-4-piperidinylcarbonyl)-β-alanyl]-L-α-aspartyl]-3-phenyl-L-alanine]	130 nM
N=C(N)c1ccc(CC(=O)NCCC(=O)N[C@@H](CC(=O)O)C(=O)N[C@@H](Cc2ccccc2)C(=O)O)cc1 [Example 3, N-[N-[N-(p-amidinophenylacetyl)-β-alanyl]-L-α-aspartyl]-3-phenyl-L-alanine]	45 nM
N=C(N)c1ccc(NC(=O)CCCC(=O)N[C@@H](CC(=O)O)C(=O)N[C@@H](Cc2ccccc2)C(=O)O)cc1 [Example 4, N-[N-[4-(p-amidinophenylcarbamoyl)butyryl]-L-α-aspartyl]-3-phenyl-L-alanine]	35 nM
N=C(N)c1ccc(CCNC(=O)CC(=O)N[C@@H](CC(=O)O)C(=O)N[C@@H](Cc2ccccc2)C(=O)O)cc1 [Example 5, N-[N-[(p-amidinophenethylcarbamoyl)acetyl]-L-α-aspartyl]-3-phenyl-L-alanine]	10 nM
CC(C)[C@H](NC(=O)[C@H](CC(=O)O)NC(=O)CCCNC(=O)c1ccc(C(=N)N)cc1)C(=O)O [Example 6, N-[N-[4-(p-amidinobenzamido)butyryl]-L-α-aspartyl]-L-valine]	10 nM
N=C(N)c1ccc(C(=O)NCCCC(=O)NCCC(=O)O)cc1 [Example 8, N-[4-(p-amidinobenzamido)butyryl]-β-alanine]	100 nM
N=C(N)c1ccc(C(=O)NCCC(=O)NCCC(=O)O)cc1 [Example 9, N-[N-(p-amidino-benzoyl)-β-alanyl]-β-alanine]	5 nM
N=C(N)c1ccc(C(=O)NCCCCC(=O)N[C@@H](CC(=O)O)C(=O)N[C@@H](Cc2ccccc2)C(=O)O)cc1 [Example 11, N-[N-[5-(p-amidinobenzamido)valeryl]-L-α-aspartyl]-3-phenyl-L-alanine]	2.5 nM
CC(C)C[C@H](NC(=O)[C@H](CC(=O)O)NC(=O)CCNC(=O)c1ccc(C(=N)N)cc1)C(=O)OC(C)C [Example 18, N-[N-[N-(p-amidino-benzoyl)-β-alanyl]-L-α-aspartyl]-L-leucine isopropyl ester]	10 nM
CC(C)COC(=O)[C@H](CC(=O)O)NC(=O)CCCCNC(=O)c1ccc(C(=N)N)cc1 [Example 25, isobutyl N-[5-(p-amidinobenzamido)valeryl]-L-α-aspartate]	6.7 nM
CCOC(=O)[C@H](CO)NC(=O)[C@H](CC(=O)O)NC(=O)CCNC(=O)c1ccc(C(=N)N)cc1 [Example 28, N-[N-[N-(p-amidinobenzoyl)-β-alanyl]-L-α-aspartyl]-L-serine ethyl ester]	5 nM
N=C(N)c1ccc(C(=O)N2CC[C@@H](C(=O)N[C@@H](CC(=O)O)C(=O)N[C@@H](Cc3ccccc3)C(=O)O)C2)cc1 [Example 31, N-[N-[[(R)-1-(p-amidinobenzoyl)-3-pyrrolidinyl]carbonyl]-L-α-aspartyl]-3-phenyl-L-alanine]	12.8 nM
CC(C)[C@H](NC(=O)[C@H](CC(=O)O)NC(=O)CCNC(=O)c1ccc(C(=N)N)cc1)C(=O)O [Example 38, N-[N-[N-(p-amidinobenzoyl)-β-alanyl]-L-α-aspartyl]-L-valine]	3.6 nM
N=C(N)c1ccc(C(=O)NCCC(=O)N[C@@H](CC(=O)O)C(=O)N[C@@H](Cc2ccc(O)cc2)C(=O)O)cc1 [Example 39]	1.2 nM

Source: patent publication US5273982A, “Acetic acid derivatives” (Hoffmann-La Roche Inc., priority 1990, dated 1993)
